Measured values from patent US10647692B2, “Heterocycle-substituted bicyclic azole pesticides” (FMC Corporation, priority 2015, dated 2020).

Legend:
Assay type in all cases: in vivo
[1] = tested on: green peach aphid (Myzus persicae (Sulzer)); experiment: Test A: control of green peach aphid, foliar spray on pre-infested radish plant; conditions: 144 h, assessed after 6 days; for mortality at 50 ppm: sprayed at 50 ppm; for mortality at 250 ppm: sprayed at 250 ppm
Procedure: (§1) Test compounds were formulated using a solution containing 10% acetone, 90% water and 300 ppm X-77® Spreader Lo-Foam Formula non-ionic surfactant containing alkylarylpolyoxyethylene, free fatty acids, glycols and isopropanol (Loveland Industries, Inc. Greeley, Colo., USA). The formulated compounds were applied in 1 mL of liquid through a SUJ2 atomizer nozzle with ⅛ JJ custom body (Spraying Systems Co. Wheaton, Ill., USA) positioned 1.27 cm (0.5 inches) above the top of each test unit. Test compounds were sprayed at the rates indicated, and each test was replicated three times.
For evaluating control of green peach aphid (Myzus persicae (Sulzer)) through contact and/or systemic means, the test unit consisted of a small open container with a 12-15-day-old radish plant inside. This was pre-infested by placing on a leaf of the test plant 30-40 aphids on a piece of leaf excised from a culture plant (cut-leaf method). The aphids moved onto the test plant as the leaf piece desiccated. After pre-infestation, the soil of the test unit was covered with a layer of sand.
Test compounds were formulated and sprayed at 250 and/or 50 ppm. After spraying of the formulated test compound, each test unit was allowed to dry for 1 hour and then a black, screened cap was placed on top. The test units were held for 6 days in a growth chamber at 19-21° C. and 50-70% relative humidity. Each test unit was then visually assessed for insect mortality.

[2] = tested on: cotton melon aphid (Aphis gossypii (Glover)); experiment: Test B: control of cotton melon aphid, foliar spray on pre-infested cotton plant; conditions: 144 h, assessed after 6 days; for mortality at 50 ppm: sprayed at 50 ppm; for mortality at 250 ppm: sprayed at 250 ppm
Procedure: as §1
For evaluating control of cotton melon aphid (Aphis gossypii (Glover)) through contact and/or systemic means, the test unit consisted of a small open container with a 6-7-day-old cotton plant inside. This was pre-infested with 30-40 insects on a piece of leaf according to the cut-leaf method, and the soil of the test unit was covered with a layer of sand.
Test compounds were formulated and sprayed at 250 and/or 50 ppm. After spraying, the test units were maintained in a growth chamber for 6 days at 19° C. and 70% relative humidity. Each test unit was then visually assessed for insect mortality.

[3] = tested on: potato leafhopper (Empoasca fabae); experiment: Test C: control of potato leafhopper, sprayed Soleil bean plant, post-infested; conditions: assessed after 6 days
Procedure: as §1
For evaluating control of potato leafhopper (Empoasca fabae) through contact and/or systemic means, the test unit consisted of a small open container with a 5-6-day-old Soleil bean plant (primary leaves emerged) inside. White sand was added to the top of the soil and one of the primary leaves was excised prior to application.
Test compounds were formulated and sprayed at 250 ppm and/or 50 ppm. After spraying, the test units were allowed to dry for 1 h before they were post-infested with 5 potato leafhoppers (18-21-day-old adults). A black, screened cap was placed on the top of each test unit, and the test units were held for 6 days in a growth chamber at 24° C. and 70% relative humidity. Each test unit was then visually assessed for insect mortality.

[4] = tested on: Western Flower Thrips (Frankliniella occidentalis); experiment: Test D: control of Western Flower Thrips, sprayed Soleil bean plant; conditions: held for 7 days
Procedure: as §1
For evaluating control of Western Flower Thrips (Frankliniella occidentalis) through contact and/or systemic means, the test unit consisted of a small open container with a 5-7-day-old Soleil bean plant inside.
Test compounds were formulated and sprayed at 250 and/or 50 ppm. After spraying, the test units were allowed to dry for 1 hour, and then 22-27 adult thrips were added to the unit. A black, screened cap was placed on the top of each test unit, and the test units were held for 7 days at 25° C. and 45-55% relative humidity.

[5] = tested on: sweetpotato whitefly (Bemisia tabaci (Gennadius)); experiment: Test E: control of sweetpotato whitefly, sprayed cotton plant infested with eggs; conditions: 312 h, assessed after 13 days; for mortality at 250 ppm: sprayed at 250 ppm
Procedure: as §1
For evaluating control of the sweetpotato whitefly (Bemisia tabaci (Gennadius)) through contact and/or systemic means, the test unit consisted of a small open container with a 12-14-day-old cotton plant inside. Prior to the spray application, both cotyledons were removed from the plant, leaving one true leaf for the assay. Adult whiteflies were allowed to lay eggs on the plant and then were removed from the test unit. Cotton plants infested with at least 15 eggs were submitted to the test for spraying.
Test compounds were formulated and sprayed at 250 and/or 50 ppm. After spraying, the test units were allowed to dry for 1 hour. The cylinders were then removed, and the units were taken to a growth chamber and held for 13 days at 28° C. and 50-70% relative humidity. Each test unit was then visually assessed for insect mortality.

Row | SMILES | mortality at 50 ppm [1] [%] | mortality at 250 ppm [1] [%] | mortality at 50 ppm [2] [%] | mortality at 250 ppm [2] [%] | control efficacy (plant damage and/or mortality) ([4]; sprayed at 250 ppm) | further results
1 | c1cnc(Oc2ccc3nn(-c4cccnc4)cc3c2)nc1 [Compound 42, 2-(3-pyridinyl)-5-(2-pyrimidinyloxy)-2H-indazole] | ≥ 80 | ≥ 80 | ≥ 80 | ≥ 80 |  | 
2 | O=C(NCC(F)(F)F)C(=O)c1ccc2nn(-c3cccnc3)cc2c1 [Compound 48, α-oxo-2-(3-pyridinyl)-N-(2,2,2-trifluoroethyl)-2H-indazole-5-acetamide] | ≥ 80 | ≥ 80 |  | ≥ 80 |  | 
3 | CC(C)NC(=O)Cc1ccc2nn(-c3cncc(F)c3)cc2c1 [Compound 56] |  |  |  |  |  | control efficacy (mortality) ([3]; sprayed at 50 ppm): ≥ 80%; control efficacy (mortality) ([3]; sprayed at 250 ppm): ≥ 80%
4 | CC(C)NC(=O)Cc1ccc2nn(-c3cccnc3)cc2c1 [Compound 38, N-(1-methylethyl)-2-(3-pyridinyl)-2H-indazole-5-acetamide] | ≥ 80 | ≥ 80 | ≥ 80 | ≥ 80 | 40% or less plant damage and/or 100% mortality | 
5 | CSCCC(=O)c1ccc2nn(-c3cccnc3)cc2c1 [Compound 31] |  |  |  |  |  | control efficacy (plant damage and/or mortality) ([4]; sprayed at 50 ppm): 40% or less plant damage and/or 100% mortality
6 | CC(C)COc1ccc2nn(-c3cccnc3)cc2c1 [Compound 54, 5-(2-methylpropoxy)-2-(3-pyridinyl)-2H-indazole] | ≥ 80 | ≥ 80 | ≥ 80 | ≥ 80 |  | mortality at 50 ppm ([5]; sprayed at 50 ppm): ≥ 50%; mortality at 250 ppm [5]: ≥ 50%
7 | CC(C(=O)NCc1ncccn1)c1ccc2nn(-c3cccnc3)cc2c1 (stereo not drawn) [Compound 59, α-methyl-2-(3-pyridinyl)-N-(2-pyrimidinylmethyl)-2H-indazole-5-acetamide] | ≥ 80 | ≥ 80 | ≥ 80 | ≥ 80 |  | mortality at 250 ppm [5]: ≥ 50%
8 | COCNCCC(=O)c1ccc2nn(-c3cccnc3)cc2c1 [Compound 32, 3-(methoxymethylamino)-1-[2-(3-pyridinyl)-2H-indazol-5-yl]-1-propanone] | ≥ 80 | ≥ 80 |  | ≥ 80 | 40% or less plant damage and/or 100% mortality | 
9 | FC(F)(F)c1ccc(Oc2ccc3nn(-c4cccnc4)cc3c2)cc1 [Compound 35] |  |  |  |  | 40% or less plant damage and/or 100% mortality | 
10 | O=C(Cc1ccc2nn(-c3cccnc3)cc2c1)NCC(F)(F)F [Compound 41] |  |  |  |  | 40% or less plant damage and/or 100% mortality | 
11 | CSCCC(=O)c1cccc2nn(-c3cccnc3)cc12 [Compound 2, 3-(methylthio)-1-[2-(3-pyridinyl)-2H-indazol-4-yl]-1-propanone] | ≥ 80 |  | ≥ 80 |  |  | control efficacy (plant damage and/or mortality) ([4]; sprayed at 50 ppm): 40% or less plant damage and/or 100% mortality
12 | CC(C(=O)NC(C)(C)C#N)c1ccc2nn(-c3cccnc3)cc2c1 (stereo not drawn) [Compound 85, N-(1-cyano-1-methylethyl)-α-methyl-2-(3-pyridinyl)-2H-indazole-5-acetamide] | ≥ 80 | ≥ 80 | ≥ 80 | ≥ 80 |  | mortality at 250 ppm [5]: ≥ 50%
